Test: (§1) The drug is tested on WLS-073 corresponding to human gut metagenome with ENA study accession number: PRJEB37062 and ENA sample accession number: ERS12561749 for biotransformation under anaerobic condition. The drug concentrations were measured over 9 timepoints collected between 0 and 24 hours of incubation by liquid-chromatography-coupled mass spectrometry (LC–MS)
Conditions: 2 µM
Note: call rule not given here.

Row | Compound | Bacterial Biotransformation
1 | CCN(C)C(=O)Oc1cccc([C@H](C)N(C)C)c1.O=C(O)C(O)C(O)C(=O)O [RIVASTIGMINE TARTRATE] | Compound NOT metabolized
2 | CCCN(CCC)CCc1cccc2c1CC(=O)N2 [ROPINIROLE] | Compound NOT metabolized

Test: as §1, with “WLS-052” for “WLS-073”, “ERS12561747” for “ERS12561749”
Conditions: 2 µM

Row | Compound | Bacterial Biotransformation
3 | CCN(C)C(=O)Oc1cccc([C@H](C)N(C)C)c1.O=C(O)C(O)C(O)C(=O)O [RIVASTIGMINE TARTRATE] | Compound metabolized
4 | CCCN(CCC)CCc1cccc2c1CC(=O)N2 [ROPINIROLE] | Compound NOT metabolized

Test: as §1, with “Z-004” for “WLS-073”, “to” for “to human gut”, “ERS12561804” for “ERS12561749”
Conditions: 2 µM

Row | Compound | Bacterial Biotransformation
5 | CCN(C)C(=O)Oc1cccc([C@H](C)N(C)C)c1.O=C(O)C(O)C(O)C(=O)O [RIVASTIGMINE TARTRATE] | Compound NOT metabolized
6 | CCCN(CCC)CCc1cccc2c1CC(=O)N2 [ROPINIROLE] | Compound NOT metabolized

Test: as §1, with “Z-007” for “WLS-073”, “rat” for “human”, “ERS12561807” for “ERS12561749”
Conditions: 2 µM

Row | Compound | Bacterial Biotransformation
7 | CCN(C)C(=O)Oc1cccc([C@H](C)N(C)C)c1.O=C(O)C(O)C(O)C(=O)O [RIVASTIGMINE TARTRATE] | Compound NOT metabolized
8 | CCCN(CCC)CCc1cccc2c1CC(=O)N2 [ROPINIROLE] | Compound NOT metabolized

Conditions: human gut metagenome, 24 h, 2 µM

Row | Compound | Bacterial Biotransformation
9 | CCN(C)C(=O)Oc1cccc([C@H](C)N(C)C)c1.O=C(O)C(O)C(O)C(=O)O [RIVASTIGMINE TARTRATE] | Compound NOT metabolized
10 | CCCN(CCC)CCc1cccc2c1CC(=O)N2 [ROPINIROLE] | Compound NOT metabolized

Test: as §1, with “Z-022” for “WLS-073”, “mouse” for “human”, “ERS12561821” for “ERS12561749”
Conditions: 2 µM

Row | Compound | Bacterial Biotransformation
11 | CCN(C)C(=O)Oc1cccc([C@H](C)N(C)C)c1.O=C(O)C(O)C(O)C(=O)O [RIVASTIGMINE TARTRATE] | Compound NOT metabolized
12 | CCCN(CCC)CCc1cccc2c1CC(=O)N2 [ROPINIROLE] | Compound NOT metabolized

Conditions: human gut metagenome, 24 h, 2 µM
Remark: another data set of the same source

Row | Compound | Bacterial Biotransformation
13 | CCN(C)C(=O)Oc1cccc([C@H](C)N(C)C)c1.O=C(O)C(O)C(O)C(=O)O [RIVASTIGMINE TARTRATE] | Compound NOT metabolized
14 | CCCN(CCC)CCc1cccc2c1CC(=O)N2 [ROPINIROLE] | Compound metabolized

Test: as §1, with “WLS-350” for “WLS-073”, “ERS12561789” for “ERS12561749”
Conditions: 2 µM

Row | Compound | Bacterial Biotransformation
15 | CCN(C)C(=O)Oc1cccc([C@H](C)N(C)C)c1.O=C(O)C(O)C(O)C(=O)O [RIVASTIGMINE TARTRATE] | Compound NOT metabolized
16 | CCCN(CCC)CCc1cccc2c1CC(=O)N2 [ROPINIROLE] | Compound NOT metabolized

Test: as §1, with “Z-006” for “WLS-073”, “mouse” for “human”, “ERS12561806” for “ERS12561749”
Conditions: 2 µM

Row | Compound | Bacterial Biotransformation
17 | CCN(C)C(=O)Oc1cccc([C@H](C)N(C)C)c1.O=C(O)C(O)C(O)C(=O)O [RIVASTIGMINE TARTRATE] | Compound NOT metabolized
18 | CCCN(CCC)CCc1cccc2c1CC(=O)N2 [ROPINIROLE] | Compound NOT metabolized

Test: as §1, with “Z-013” for “WLS-073”, “rabbit” for “human”, “ERS12561813” for “ERS12561749”
Conditions: 2 µM

Row | Compound | Bacterial Biotransformation
19 | CCN(C)C(=O)Oc1cccc([C@H](C)N(C)C)c1.O=C(O)C(O)C(O)C(=O)O [RIVASTIGMINE TARTRATE] | Compound NOT metabolized
20 | CCCN(CCC)CCc1cccc2c1CC(=O)N2 [ROPINIROLE] | Compound NOT metabolized

Test: as §1, with “WLS-010” for “WLS-073”, “ERS12561743” for “ERS12561749”
Conditions: 2 µM

Row | Compound | Bacterial Biotransformation
21 | CCN(C)C(=O)Oc1cccc([C@H](C)N(C)C)c1.O=C(O)C(O)C(O)C(=O)O [RIVASTIGMINE TARTRATE] | Compound NOT metabolized
22 | CCCN(CCC)CCc1cccc2c1CC(=O)N2 [ROPINIROLE] | Compound NOT metabolized

Conditions: human gut metagenome, 24 h, 2 µM
Remark: another data set of the same source

Row | Compound | Bacterial Biotransformation
23 | CCN(C)C(=O)Oc1cccc([C@H](C)N(C)C)c1.O=C(O)C(O)C(O)C(=O)O [RIVASTIGMINE TARTRATE] | Compound NOT metabolized
24 | CCCN(CCC)CCc1cccc2c1CC(=O)N2 [ROPINIROLE] | Compound NOT metabolized

Conditions: human gut metagenome, 24 h, 2 µM
Remark: another data set of the same source

Row | Compound | Bacterial Biotransformation
25 | CCN(C)C(=O)Oc1cccc([C@H](C)N(C)C)c1.O=C(O)C(O)C(O)C(=O)O [RIVASTIGMINE TARTRATE] | Compound metabolized
26 | CCCN(CCC)CCc1cccc2c1CC(=O)N2 [ROPINIROLE] | Compound NOT metabolized

Test: as §1, with “Z-023” for “WLS-073”, “to” for “to human gut”, “ERS12561822” for “ERS12561749”
Conditions: 2 µM

Row | Compound | Bacterial Biotransformation
27 | CCN(C)C(=O)Oc1cccc([C@H](C)N(C)C)c1.O=C(O)C(O)C(O)C(=O)O [RIVASTIGMINE TARTRATE] | Compound NOT metabolized
28 | CCCN(CCC)CCc1cccc2c1CC(=O)N2 [ROPINIROLE] | Compound NOT metabolized

Conditions: human gut metagenome, 24 h, 2 µM
Remark: another data set of the same source

Row | Compound | Bacterial Biotransformation
29 | CCN(C)C(=O)Oc1cccc([C@H](C)N(C)C)c1.O=C(O)C(O)C(O)C(=O)O [RIVASTIGMINE TARTRATE] | Compound NOT metabolized
30 | CCCN(CCC)CCc1cccc2c1CC(=O)N2 [ROPINIROLE] | Compound NOT metabolized

Test: as §1, with “Z-025” for “WLS-073”, “rabbit” for “human”, “ERS12561824” for “ERS12561749”
Conditions: 2 µM

Row | Compound | Bacterial Biotransformation
31 | CCN(C)C(=O)Oc1cccc([C@H](C)N(C)C)c1.O=C(O)C(O)C(O)C(=O)O [RIVASTIGMINE TARTRATE] | Compound NOT metabolized
32 | CCCN(CCC)CCc1cccc2c1CC(=O)N2 [ROPINIROLE] | Compound NOT metabolized

Conditions: human gut metagenome, 24 h, 2 µM
Remark: another data set of the same source

Row | Compound | Bacterial Biotransformation
33 | CCN(C)C(=O)Oc1cccc([C@H](C)N(C)C)c1.O=C(O)C(O)C(O)C(=O)O [RIVASTIGMINE TARTRATE] | Compound NOT metabolized
34 | CCCN(CCC)CCc1cccc2c1CC(=O)N2 [ROPINIROLE] | Compound NOT metabolized

Conditions: human gut metagenome, 24 h, 2 µM
Remark: another data set of the same source

Row | Compound | Bacterial Biotransformation
35 | CCN(C)C(=O)Oc1cccc([C@H](C)N(C)C)c1.O=C(O)C(O)C(O)C(=O)O [RIVASTIGMINE TARTRATE] | Compound NOT metabolized
36 | CCCN(CCC)CCc1cccc2c1CC(=O)N2 [ROPINIROLE] | Compound NOT metabolized

Test: as §1, with “Z-009” for “WLS-073”, “pig” for “human”, “ERS12561809” for “ERS12561749”
Conditions: 2 µM

Row | Compound | Bacterial Biotransformation
37 | CCN(C)C(=O)Oc1cccc([C@H](C)N(C)C)c1.O=C(O)C(O)C(O)C(=O)O [RIVASTIGMINE TARTRATE] | Compound NOT metabolized
38 | CCCN(CCC)CCc1cccc2c1CC(=O)N2 [ROPINIROLE] | Compound NOT metabolized

Conditions: human gut metagenome, 24 h, 2 µM
Remark: another data set of the same source

Row | Compound | Bacterial Biotransformation
39 | CCN(C)C(=O)Oc1cccc([C@H](C)N(C)C)c1.O=C(O)C(O)C(O)C(=O)O [RIVASTIGMINE TARTRATE] | Compound metabolized
40 | CCCN(CCC)CCc1cccc2c1CC(=O)N2 [ROPINIROLE] | Compound NOT metabolized

Source: ChEMBL document CHEMBL5724914, “Linking interpersonal differences in gut microbiota composition and drug biotransformation activity” (2024)
